Data published in EP4043444A1, “SUBSTITUTED ISOXAZOLINE DERIVATIVES” (priority 2021, dated 2022).

Experiments:
Format in all cases: in vivo
[1] = tested on: Boll weevil (Anthonomus grandis); assay: Boll weevil control, 96-well microtiter plates with insect diet and eggs; details: Anthonomus grandis, 120 h, read-out: mortality (Egg and larval mortality)
Procedure: For evaluating control of boll weevil, the test unit consisted of 96-well-microtiter plates containing an insect diet and 5-10 A. grandis eggs.
The compounds were formulated using a solution containing 75% v/v water and 25% v/v DMSO. Different concentrations of formulated compounds were sprayed onto the insect diet at 5µl, using a custom-built micro atomizer, at two replications.
After application, microtiter plates were incubated at about 25 + 1°C and about 75 + 5 % relative humidity for 5 days. Egg and larval mortality were then visually assessed.

[2] = tested on: Tobacco Budworm (Heliothis virescens); assay: Tobacco Budworm control, 96-well microtiter plates with insect diet and eggs; details: Heliothis virescens, 120 h; 2500ppm; sprayed onto insect diet; 5 days; in comparison with untreated controls; read-out: mortality (Egg and larval mortality)
Procedure: For evaluating control of Tobacco Budworm, the test unit consisted of 96-well-microtiter plates containing an insect diet and 15-25 H. virescens eggs. The compounds were formulated using a solution containing 75% v/v water and 25% v/v DMSO. Different concentrations of formulated compounds were sprayed onto the insect diet at 10µl, using a custom-built micro atomizer, at two replications. After application, microtiter plates were incubated at about 28 + 1°C and about 80 + 5 % relative humidity for 5 days. Egg and larval mortality was then visually assessed.

[3] = tested on: Greenhouse Whitefly (Trialeurodes vaporarirorum); assay: Greenhouse Whitefly control, 96-well microtiter plates with eggplant leaf disk and eggs; details: foliar, 144 h, read-out: mortality (Mortality of hatched crawlers)
Procedure: For evaluating control of Greenhouse Whitefly, the test unit consisted of 96-well-microtiter plates containing a leaf disk of eggplant leaf disk with Whitefly eggs. The compounds or mixtures were formulated using a solution containing 75% water and 25% DMSO. Different concentrations of formulated were sprayed onto the […] at 2.5µl, using a custom-built micro atomizer, at two replications. After application, microtiter plates were incubated at 23 + 1°C, 65 + 5% RH for 6 days. Mortality of hatched crawlers was then visually assessed.

[4] = tested on: Green Peach Aphid (Myzus persicae) (mixed life stages); assay: Green Peach Aphid control through systemic means, artificial diet under artificial membrane; details: Myzus persicae, 72 h, read-out: mortality (Aphid mortality)
From the text: For evaluating control of Green Peach Aphid through systemic means the test unit consisted of 96-well-microtiter plates containing liquid artificial diet under an artificial membrane. The compounds were formulated using a solution containing 75% v/v water and 25% v/v DMSO. Different concentrations of formulated compounds were pipetted into the aphid diet, using a custom-built pipette, at two replications. After application, 5 - 8 adult aphids were placed on the artificial membrane inside the microtiter plate wells. The aphids were then allowed to suck on the treated aphid diet and incubated at about 23 + 1°C and about 50 + 5 % relative humidity for 3 days. Aphid mortality and fecundity was then visually assessed.

[5] = tested on: Yellow Fever Mosquito (Aedes aegypti); assay: whole plant or invertebrate; details: 48 h, 2 days, in comparison with untreated controls, read-out: mortality (Larval mortality)
Procedure: For evaluating control of Yellow Fever Mosquito the test unit consisted of 96-well-microtiter plates containing 200µl of tap water per well and 5-15 freshly hatched A. aegypti larvae. The active compounds were formulated using a solution containing 75% (v/v) water and 25% (v/v) DMSO. Different concentrations of formulated compounds or mixtures were sprayed onto the insect diet at 2.5µl, using a custom-built micro atomizer, at two replications.
After application, microtiter plates were incubated at 28 + 1°C, 80 + 5 % RH for 2 days. Larval mortality was then visually assessed.

Measured: mortality at 2500 ppm

O=C(Nc1ccc(F)cc1F)c1cc(NC2=NOC(c3cccc(C(F)(F)F)c3)(C(F)(F)F)C2)ccc1Cl (stereo not shown) [I-20, 2-chloro-N-(2,4-difluorophenyl)-5-[[5-(trifluoromethyl)-5-[3-(trifluoromethyl)phenyl]-4H-isoxazol-3-yl]amino]benzamide]
not listed: [5]
≥ 75%: all other assays above

O=C(NC1CC1)c1cc(NC2=NOC(c3cc(Cl)cc(Cl)c3)(C(F)(F)F)C2)ccc1OC(F)(F)F (stereo not shown) [I-172]
not listed: [3]
≥ 75%: all other assays above

O=C(NCC(F)(F)F)c1cc(NC2=NOC(c3cc(Cl)cc(Cl)c3)(C(F)(F)F)C2)ccc1OC(F)(F)F (stereo not shown) [I-179]
not listed: [3]
≥ 75%: all other assays above

O=C(Nc1ccc(F)c(NC(=O)C(F)F)c1F)c1cc(NC2=NOC(c3cc(Cl)cc(Cl)c3)(C(F)(F)F)C2)ccc1Cl (stereo not shown) [I-5, 2-chloro-5-[[5-(3,5-dichlorophenyl)-5-(trifluoromethyl)-4H-isoxazol-3-yl]amino]-N-[3-[(2,2-difluoroacetyl)amino]-2,4-difluoro-phenyl]benzamide]
not listed: [3]
≥ 75%: all other assays above

O=C(Nc1ccc(F)cc1F)c1cc(NC2=NOC(c3cc(Cl)cc(Cl)c3)(C(F)(F)F)C2)ccc1F (stereo not shown) [I-154]
not listed: [3]
≥ 75%: all other assays above

N#CC1(NC(=O)c2cc(NC3=NOC(c4cc(Cl)cc(Cl)c4)(C(F)(F)F)C3)ccc2Cl)CC1 (stereo not shown) [I-3]
not listed: [3]
≥ 75%: all other assays above

O=C(Nc1ccc(F)cc1F)c1cccc(NC2=NOC(c3cc(Cl)cc(Cl)c3)(C(F)(F)F)C2)c1F (stereo not shown) [I-13, 3-[[5-(3,5-dichlorophenyl)-5-(trifluoromethyl)-4H-isoxazol-3-yl]amino]-N-(2,4-difluorophenyl)-2-fluoro-benzamide]
not listed: [3]
≥ 75%: all other assays above

CCN1OC[C@@H](NC(=O)c2cc(NC3=NOC(c4cc(Cl)cc(Cl)c4)(C(F)(F)F)C3)ccc2F)C1=O (stereo partly shown) [I-162]
not listed: [3]
≥ 75%: all other assays above

CC(=O)Nc1c(F)ccc(NC(=O)c2cc(NC3=NOC(c4cc(Cl)cc(Cl)c4)(C(F)(F)F)C3)ccc2Cl)c1F (stereo not shown) [I-6]
not listed: [3]
≥ 75%: all other assays above

O=C(Nc1ccc(F)cc1F)c1cc(NC2=NOC(c3cc(Cl)cc(Cl)c3)(C(F)(F)F)C2)ccc1OC(F)F (stereo not shown) [I-157]
not listed: [3]
≥ 75%: all other assays above

Cc1ccc(NC2=NOC(c3cc(Cl)cc(Cl)c3)(C(F)(F)F)C2)cc1C(=O)NC1CC1 (stereo not shown) [I-169]
not listed: [3]
≥ 75%: all other assays above

O=C(Nc1ccc(F)cc1F)c1cc(NC2=NOC(c3cc(Cl)cc(Cl)c3)(C(F)(F)F)C2)ccc1Cl (stereo not shown) [I-2]
not listed: [3]
≥ 75%: all other assays above

O=C(CC(F)(F)F)Nc1c(F)ccc(NC(=O)c2cc(NC3=NOC(c4cc(Cl)cc(Cl)c4)(C(F)(F)F)C3)ccc2Cl)c1F (stereo not shown) [I-9]
not listed: [3]
≥ 75%: all other assays above

O=C(Nc1ccc(F)c(NC(=O)C(F)(F)Cl)c1F)c1cc(NC2=NOC(c3cc(Cl)cc(Cl)c3)(C(F)(F)F)C2)ccc1Cl (stereo not shown) [I-7]
not listed: [3]
≥ 75%: all other assays above

CCN1OC[C@@H](NC(=O)c2cc(NC3=NOC(c4cc(Cl)cc(Cl)c4)(C(F)(F)F)C3)ccc2C(F)(F)F)C1=O (stereo partly shown) [I-166]
not listed: [3]
≥ 75%: all other assays above

O=C(Nc1ccc(F)c(NC(=O)C(F)(F)F)c1F)c1cc(NC2=NOC(c3cc(Cl)cc(Cl)c3)(C(F)(F)F)C2)ccc1Cl (stereo not shown) [I-8]
not listed: [3]
≥ 75%: all other assays above
